Our source for the EC50 values is patent US20240124466A1, “COMPOUNDS AND USE THEREOF FOR TREATMENT OF NEURODEGENERATIVE, DEGENERATIVE AND METABOLIC DISORDERS” (VOVA IDA THERAPEUTICS, INC., priority 2020, published 2024).

Molecules are shown by their SMILES. Where only a bound is given, the exact number is not on record here.

One may read the EC50 as the concentration that produces a half-maximal response.

The subject of the test is PK1 neuroblastoma cells exposed to TPrP. In words: cells. The conditions noted are these: Neuroblastoma cell, 96 h, read-out: TPrP EC50.
As to `Cc1ccc(-c2cnn(Cc3ccccc3)c2)cc1S(=O)(=O)N1CCOCC1` [SR-28764, 4-((5-(1-Benzyl-1H-pyrazol-4-yl)-2-methylphenyl)sulfonyl)morpholine], the EC50 came out at 150 nM.
As for `Cc1ccc(-c2ncc(-c3ccccc3)[nH]2)cc1S(=O)(=O)N1CCOCC1` [SR-28804, 4-((2-Methyl-5-(5-phenyl-1H-imidazol-2-yl)phenyl)sulfonyl)morpholine], the figure is 400 nM.
Turning to `Cc1ccc(-c2nnc(-c3ccccc3)n2C)cc1S(=O)(=O)N1CCOCC1` [SR-28864, 4-((2-Methyl-5-(4-methyl-5-phenyl-4H-1,2,4-triazol-3-yl)phenyl)sulfonyl) morpholine], the EC50 is greater than 1200 nM.
As for `Cc1ccc(-c2ccnc(-c3ccc(F)cc3)c2)cc1S(=O)(=O)N1CCOCC1` [SR-28924, 4-((5-(2-(4-Fluorophenyl)pyridin-4-yl)-2-methylphenyl)sulfonyl)morpholine], the figure is 40 nM; as for `Cc1ccc(-c2cnn(-c3ccccc3)c2)cc1S(=O)(=O)N1CCOCC1` [SR-28925, 4-((2-Methyl-5-(1-phenyl-1H-pyrazol-4-yl)phenyl)sulfonyl)morpholine], 20 nM; as for `Cc1ccc(-c2ccnc(-c3ccccc3)c2)cc1S(=O)(=O)N1CCOCC1` [SR-28984, 4-((2-Methyl-5-(2-phenylpyridin-4-yl)phenyl)sulfonyl)morpholine], 30 nM.
In the case of `Cc1ccc(-c2coc(-c3ccccc3)c2)cc1S(=O)(=O)N1CCOCC1` [SR-29044, 4-((2-Methyl-5-(5-phenylfuran-3-yl)phenyl)sulfonyl)morpholine] it was greater than 1200 nM; in that of `Cc1ccc(-c2ccn(-c3ccccc3)c2)cc1S(=O)(=O)N1CCOCC1` [SR-29084, 4-((2-Methyl-5-(1-phenyl-1H-pyrrol-3-yl)phenyl)sulfonyl)morpholine], 600 nM.
In the case of `Cc1ccc(-c2csc(-c3ccccc3)c2)cc1S(=O)(=O)N1CCOCC1` [SR-29184, 4-((2-Methyl-5-(5-phenylthiophen-3-yl)phenyl)sulfonyl)morpholine] it was greater than 1200 nM.
With `Cc1ccc(-c2ccnc(N3CCOCC3)c2)cc1S(=O)(=O)N1CCOCC1` [SR-29224, 4-(4-(4-Methyl-3-(morpholinosulfonyl)phenyl)pyridin-2-yl)morpholine], the EC50 came out at 6 nM.
As for `Cc1ccc(-c2c[nH]cc2-c2ccccc2)cc1S(=O)(=O)N1CCOCC1` [SR-29285, 4-((2-Methyl-5-(4-phenyl-1H-pyrrol-3-yl)phenyl)sulfonyl)morpholine], the figure is greater than 1200 nM; as for `O=S(=O)(c1cc(-c2nnc(-c3ccccc3)[nH]2)ccc1C1CC1)N1CCOCC1` [SR-29784, 4-((2-Cyclopropyl-5-(5-phenyl-4H-1,2,4-triazol-3-yl)phenyl)sulfonyl) morpholine], 600 nM; as for `Cc1ccc(-c2cn(-c3ccccc3)nn2)cc1S(=O)(=O)N1CCOCC1` [SR-30084, 4-((2-Methyl-5-(1-phenyl-1H-1,2,3-triazol-4-yl)phenyl)sulfonyl)morpholine], 30 nM.
As for `C[C@@H]1CN(S(=O)(=O)c2cc(-c3nnc(-c4ccccc4)[nH]3)ccc2C(F)(F)F)C[C@H](C)O1` [SR-30786, (cis)-2,6-dimethyl-4-((5-(5-phenyl-4H-1,2,4-triazol-3-yl)-2-(trifluoromethyl)phenyl)sulfonyl)morpholine], the figure is greater than 1200 nM; as for `O=S(=O)(c1cc(-c2nnc(-c3ccccc3)[nH]2)ccc1OC(F)(F)F)N1CCOCC1` [SR-31545, 4-((5-(5-Phenyl-4H-1,2,4-triazol-3-yl)-2-(trifluoromethoxy)phenyl)sulfonyl) morpholine], greater than 1500 nM.
In the case of `Cc1ccc(-c2nnc(-c3ccccc3)[nH]2)cc1S(=O)(=O)NCc1cccnc1` [SR-31584, 2-Methyl-5-(5-phenyl-4H-1,2,4-triazol-3-yl)-N-(pyridin-3-ylmethyl)benzene sulfonamide] it was 90 nM; in that of `Cc1ccc(-c2nnc(-c3ccccc3)[nH]2)cc1S(=O)(=O)NCCN1CCOCC1` [SR-31824, 2-Methyl-N-(2-morpholinoethyl)-5-(5-phenyl-4H-1,2,4-triazol-3-yl)benzene sulfonamide], greater than 1500 nM; in that of `Cc1ccc(-c2nnc(-c3ccccc3)[nH]2)cc1C(=O)N1CCOCC1` [SR-32044, (2-Methyl-5-(5-phenyl-4H-1,2,4-triazol-3-yl)phenyl)(morpholino)methanone], roughly 1500 nM.
For `Cc1ccc(-c2nnc(-c3ccccc3)[nH]2)cc1S(=O)(=O)N1CCC(O)CC1` [SR-32045, 1-((2-Methyl-5-(5-phenyl-4H-1,2,4-triazol-3-yl)phenyl)sulfonyl)piperidin-4-ol], the EC50 is greater than 1500 nM.
In the case of `Cc1ccc(-c2nnc(-c3ccccc3)[nH]2)cc1S(=O)(=O)N1CCN(CCO)CC1` [SR-32124] it was 15 nM.
`Cc1ccc(-c2nnc(-c3ccccc3)[nH]2)cc1S(=O)(=O)NCc1ccccn1` [SR-32144, 2-Methyl-5-(5-phenyl-4H-1,2,4-triazol-3-yl)-N-(pyridin-2-ylmethyl)benzene sulfonamide]: the EC50 is greater than 1500 nM.
As for `Cc1ccc(-c2nnc(-c3ccccc3)[nH]2)cc1S(=O)(=O)NC(C)(C)CO` [SR-32184, N-(1-hydroxy-2-methylpropan-2-yl)-2-methyl-5-(5-phenyl-4H-1,2,4-triazol-3-yl)benzenesulfonamide], the figure is 180 nM; as for `Cc1ccc(-c2nnc(-c3ccccc3)[nH]2)cc1S(=O)(=O)N1CCC(O)C1` (stereo not drawn) [SR-32284, 1-((2-Methyl-5-(5-phenyl-4H-1,2,4-triazol-3-yl)phenyl)sulfonyl)pyrrolidin-3-ol], 550 nM.
As to `Cc1ccc(-c2nnc(-c3ccccc3)[nH]2)cc1S(=O)(=O)N1CCOCC1C` (stereo not drawn) [SR-32286, 3-Methyl-4-((2-methyl-5-(5-phenyl-4H-1,2,4-triazol-3-yl)phenyl)sulfonyl) morpholine], the EC50 worked out at 110 nM.
As for `Cc1ccc(-c2nnc(-c3ccccc3)[nH]2)cc1S(=O)(=O)N1CCN(C2COC2)CC1` [SR-32324, 1-((2-Methyl-5-(5-phenyl-4H-1,2,4-triazol-3-yl)phenyl)sulfonyl)-4-(oxetan-3-yl)piperazine], the figure is 900 nM; as for `Cc1ccc(-c2nnc(-c3ccccc3)[nH]2)cc1S(=O)(=O)N1C[C@H]2COC[C@H]2C1` [SR-32404, (3aR,6aS)-5-((2-Methyl-5-(5-phenyl-4H-1,2,4-triazol-3-yl)phenyl)sulfonyl) hexahydro-1H-furo[3,4-c]pyrrole], 800 nM.
Consider `Cc1ccc(-c2nnc(-c3ccccc3)[nH]2)cc1S(=O)(=O)N1C2CCC1COC2` [SR-32704, 8-((2-Methyl-5-(5-phenyl-4H-1,2,4-triazol-3-yl)phenyl)sulfonyl)-3-oxa-8-azabicyclo[3.2.1]octane], for which the EC50 is 800 nM.
In the case of `Cc1ccc(-c2nnc(-c3ccccc3)[nH]2)cc1S(=O)(=O)N1CCC2(CC1)OCCO2` [SR-32705, 8-((2-Methyl-5-(5-phenyl-4H-1,2,4-triazol-3-yl)phenyl)sulfonyl)-1,4-dioxa-8-azaspiro[4.5]decane] it was greater than 1500 nM; in that of `Cc1ccc(-c2nnc(-c3ccccc3)[nH]2)cc1S(=O)(=O)N1CCC2(CC1)OCCCO2` [SR-32744, 9-((2-Methyl-5-(5-phenyl-4H-1,2,4-triazol-3-yl)phenyl)sulfonyl)-1,5-dioxa-9-azaspiro[5.5]undecane], greater than 1500 nM; in that of `Cc1ccc(-c2nnc(-c3ccccc3)[nH]2)cc1S(=O)(=O)NC1CCC2(CC1)OCCO2` [SR-32764, 2-Methyl-5-(5-phenyl-4H-1,2,4-triazol-3-yl)-N-(1,4-dioxaspiro[4.5]decan-8-yl)benzenesulfonamide], greater than 1500 nM.
In the case of `Cc1ccc(-c2nnc(-c3ccccc3)[nH]2)cc1S(=O)(=O)N1CCC(O)(c2ccccc2)CC1` [SR-32784, 1-((2-Methyl-5-(5-phenyl-4H-1,2,4-triazol-3-yl)phenyl)sulfonyl)-4-phenyl piperidin-4-ol] it was greater than 1500 nM; in that of `Cc1ccc(-c2nnc(-c3ccccc3)[nH]2)cc1S(=O)(=O)N1CCC(O)(c2cccnc2)CC1` [SR-32924, 1-((2-Methyl-5-(5-phenyl-4H-1,2,4-triazol-3-yl)phenyl)sulfonyl)-4-(pyridin-3-yl)piperidin-4-ol], greater than 1500 nM; in that of `Cc1ccc(-c2nnc(-c3ccccc3)[nH]2)cc1S(=O)(=O)N1CCC2(CCCO2)CC1` [SR-32925, 8-((2-Methyl-5-(5-phenyl-4H-1,2,4-triazol-3-yl)phenyl)sulfonyl)-1-oxa-8-azaspiro[4.5]decane], greater than 1500 nM.
As for `Cc1ccc(-c2nnc(-c3ccccc3)[nH]2)cc1S(=O)(=O)N1CC(O)C1` [SR-32944, 1-((2-Methyl-5-(5-phenyl-4H-1,2,4-triazol-3-yl)phenyl)sulfonyl)azetidin-3-ol], the figure is 15 nM; as for `Cc1ccc(-c2nnc(-c3ccccc3)[nH]2)cc1S(=O)(=O)N1CCOCC1CO` (stereo not drawn) [SR-32945, (4-((2-Methyl-5-(5-phenyl-4H-1,2,4-triazol-3-yl)phenyl)sulfonyl)morpholin-3-yl)methanol], 300 nM.
On to `Cc1ccc(-c2nnc(-c3ccccc3)[nH]2)cc1S(=O)(=O)N1CCC2(CC1)OCc1ccccc12` [SR-32984, 1′-((2-Methyl-5-(5-phenyl-4H-1,2,4-triazol-3-yl)phenyl)sulfonyl)-3H-spiro[isobenzofuran-1,4′-piperidine]], for which the EC50 was greater than 1500 nM.
As for `Cc1ccc(-c2nnc(-c3ccccc3)[nH]2)cc1S(=O)(=O)N1CCC(O)(Cc2ccccc2)CC1` [SR-33024, 4-Benzyl-1-((2-methyl-5-(5-phenyl-4H-1,2,4-triazol-3-yl)phenyl)sulfonyl) piperidin-4-ol], the figure is greater than 1500 nM; as for `Cc1ccc(-c2nnc(-c3ccccc3)[nH]2)cc1S(=O)(=O)N1CCCC2(C1)OCCO2` [SR-33045, 7-((2-Methyl-5-(5-phenyl-4H-1,2,4-triazol-3-yl)phenyl)sulfonyl)-1,4-dioxa-7-azaspiro[4.5]decane], greater than 1500 nM; as for `Cc1ccc(-c2nnc(-c3ccccc3)[nH]2)cc1S(=O)(=O)NCc1cncnc1` [SR-33344, 2-Methyl-5-(5-phenyl-4H-1,2,4-triazol-3-yl)-N-(pyrimidin-5-ylmethyl)benzene sulfonamide], 650 nM.
